The values below come from publication PMC12472621, “Excavating Precursors from Herb Pairs Polygala tenuifolia and Acori tatarinowii: Synthesis and Anticonvulsant Activity Evaluation of 3,4,5-Trimethoxycinnamic Acid (TMCA) Piperazine Amide Derivatives” (Pharmaceuticals, 2025).

For this assay, the system named is maximal electroshock (MES) induced seizures. Kind of assay: Maximal electroshock (MES) test. The format is in vivo, mice. Particulars: 100 mg/kg i.p., mice; for responders at 100 mg/kg: Mus musculus, ip. From the text:
Male Kunming mice (23–28 g) were maintained under controlled conditions with ad libitum access to standard pellet diet and water. Test compounds were formulated immediately prior to administration in normal saline containing 0.5% Tween-80. Our experiment was authorized by the Institutional Animal Care and Use Committee of Shaanxi University of Chinese Medicine (animal ethics certificate number: SUCMDL20210309027).
The MES test carried out following the method of Swinyard. A 60 Hz current (50 mA; 0.25 s duration) was delivered via corneal electrodes using a YSD-4G electro convulsion meter (Zhenghua Instruments, Huaibei, China, SN: ZH0056232). […] Test compounds were suspended in an identical vehicle. Protection was defined as abolition of tonic hindlimb extension.

The mark [1] stands for this setting: 0.5 h, read-out: MES model, protected mice/total mice, 0.5 h (converted).
Setting [2] is: 1 h, read-out: MES model, protected mice/total mice, 1 h (converted).
Where [3] appears, read: 2 h, read-out: MES model, protected mice/total mice, 2 h (converted).
Setting [4] is: 3 h, read-out: MES model, protected mice/total mice, 3 h (converted).

Where two headings read alike, the source gives them in different places.

With `COc1cc(/C=C/C(=O)N2CCN(C(=O)CCC(=O)N3CCN(c4cccc(Cl)c4)CC3)CC2)cc(OC)c1OC` [B13, (E)-1-(4-(3-chlorophenyl)piperazin-1-yl)-4-(4-(3-(3,4,5-trimethoxyphenyl)acryloyl)piperazin-1-yl)butane-1,4-dione], the responders at 100 mg/kg reads like this: under setting [1], 50%; under setting [2], 25%; under setting [3], 0%; under setting [4], 0%.

For `COc1cc(/C=C/C(=O)N2CCN(C(=O)CCC(=O)N3CCN(c4ccc(C(F)(F)F)cc4)CC3)CC2)cc(OC)c1OC` [B14, (E)-1-(4-(4-(trifluoromethyl)phenyl)piperazin-1-yl)-4-(4-(3-(3,4,5-trimethoxyphenyl)acryloyl)piperazin-1-yl)butane-1,4-dione], the responders at 100 mg/kg was 75% under setting [1], 75% under setting [2], 50% under setting [3] and 0% under setting [4].

As to `COc1ccccc1N1CCN(C(=O)CCC(=O)N2CCN(C(=O)/C=C/c3cc(OC)c(OC)c(OC)c3)CC2)CC1` [B15, (E)-1-(4-(2-methoxyphenyl)piperazin-1-yl)-4-(4-(3-(3,4,5-trimethoxyphenyl)acryloyl)piperazin-1-yl)butane-1,4-dione], the responders at 100 mg/kg is, setting by setting: under setting [1], 75%; under setting [2], 75%; under setting [3], 25%; under setting [4], 0%.

With `COc1cc(/C=C/C(=O)N2CCN(C(=O)CCC(=O)N3CCN(c4ncccn4)CC3)CC2)cc(OC)c1OC` [B16, (E)-1-(4-(pyrimidin-2-yl)piperazin-1-yl)-4-(4-(3-(3,4,5-trimethoxyphenyl)acryloyl)piperazin-1-yl)butane-1,4-dione], the responders at 100 mg/kg is 75% under setting [1], 50% under setting [2], 50% under setting [3] and 0% under setting [4].

Take `COc1cc(/C=C/C(=O)N2CCN(C(=O)CCC(=O)N3CCC(c4noc5cc(F)ccc45)CC3)CC2)cc(OC)c1OC` [B17, (E)-1-(4-(6-fluorobenzo[d]isoxazol-3-yl)piperidin-1-yl)-4-(4-(3-(3,4,5-trimethoxyphenyl)acryloyl)piperazin-1-yl)butane-1,4-dione]: the responders at 100 mg/kg is 50% under setting [1], 50% under setting [2], 25% under setting [3] and 0% under setting [4].

“(E)-3-(2,4,5-trimethoxyphenyl)allyl 4-oxo-4-(4-((E)-3-(3,4,5-trimethoxyphenyl)acryloyl)piperazin-1-yl)butanoate [B5]”: the “MES model, protected mice/total mice, 0.5 h” value (0.5 h) is on record as 3/4. Further, for the setting “1 h”, the “MES model, protected mice/total mice, 1 h” value is 3/4. In addition, the “MES model, protected mice/total mice, 2 h” value (2 h) is listed as 2/4. Further, the “MES model, protected mice/total mice, 3 h” value (3 h) is listed as 0/4.

With “(E)-3-(2,4,5-trimethoxyphenyl)allyl 4-oxo-4-(4-((E)-3-(3,4,5-trimethoxyphenyl)acryloyl)piperazin-1-yl)butanoate [B6]”, where the note is “0.5 h”, the “MES model, protected mice/total mice, 0.5 h” value is 2/4. Moreover, the “MES model, protected mice/total mice, 1 h” value (1 h) is 1/4. Moreover, the “MES model, protected mice/total mice, 2 h” value (2 h) is reported as 1/4. The “MES model, protected mice/total mice, 3 h” value (3 h) is on record as 0/4.
